Measurements reported in patent US7098337B2, “1,2,3,4,9,9a-hexahydro-2,4a,5-triaza-fluorene and 1,2,3,4-tetrahydro-2,4a,5-triaza-fluorene derivatives” (priority 2002, dated 2006).

Legend:
[1] = target: T1, human 5-HT2B receptors (Homo sapiens, UniProt P41595); assay: Binding to the 5-HT2B receptor, [3H]-5-HT, CHO cell line (Method (b)); details: human 5-HT2B in CHO cell line, read-out: Ki (2B)
T1 construct: expressed in transfected cells; host or cells: CHO cell line
Experimental: (§1) The binding of compounds of formula (I) to serotonin receptors was determined in vitro by standard methods. The activity of the test compounds was investigated in accordance with the assays given below.
Method (b): For the binding to the 5-HT2B receptor, the 5-HT2B receptors were radiolabeled with [^3H]-5-HT. The affinity of the compounds for human 5-HT2B receptors in a CHO cell line was determined according to the procedure of K. Schmuck, C. Ullmer, P. Engels and H. Lubbert, FEBS Lett., 1994, 342, 85–90.

[2] = target: T2, 5-HT2C receptor (Homo sapiens, UniProt P28335); assay: Functional activity, FLIPR calcium assay, CHO cells expressing human 5-HT2C; format: cell-based; set-up: expressed in transfected cells; host or cells: CHO cells; details: for h5-HT2C Rel. Eff.: relative efficacy vs response to 10 μM 5-HT (defined as 100%)
T2 sequence (P28335 33-458): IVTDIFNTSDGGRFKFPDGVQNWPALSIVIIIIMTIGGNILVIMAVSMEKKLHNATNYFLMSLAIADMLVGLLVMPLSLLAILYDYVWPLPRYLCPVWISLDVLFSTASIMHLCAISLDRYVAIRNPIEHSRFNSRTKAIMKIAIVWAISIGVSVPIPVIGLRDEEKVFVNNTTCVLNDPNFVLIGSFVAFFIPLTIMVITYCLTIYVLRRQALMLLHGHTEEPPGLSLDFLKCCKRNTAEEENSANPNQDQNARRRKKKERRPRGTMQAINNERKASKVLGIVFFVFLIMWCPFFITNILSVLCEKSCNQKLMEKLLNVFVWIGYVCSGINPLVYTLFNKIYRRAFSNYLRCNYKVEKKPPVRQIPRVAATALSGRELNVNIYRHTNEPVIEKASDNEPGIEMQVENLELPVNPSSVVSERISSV
Experimental: (§2) The functional activity of compounds of formula (I) was assayed using a Fluorimetric Imaging Plate reader (FLIPR). CHO cells expressing the human 5-HT2C or human 5-HT2A receptors were counted and plated into standard 96 well microtitre plates on the day before testing to give a confluent monolayer. The cells were then dye loaded with the calcium sensitive dye, Fluo-3-AM. Unincorporated dye was removed using an automated cell washer to leave a total volume of 100 μL/well of assay buffer (Hanks balanced salt solution containing 20 mM Hepes and 2.5 mM probenecid). The drug (dissolved in 50 μL of the assay buffer) was added at a rate of 70 μL/sec to each well of the FLIPR 96 well plate during fluorescence measurements. The measurements were taken at 1 sec intervals and the maximum fluorescent signal was measured (approx 10–15 secs after drug addition) and compared with the response produced by 10 μM 5-HT (defined as 100%) to which it was expressed as a percentage response (relative efficacy). Dose response curves were constructed using Graphpad Prism (Graph Software Inc.).

[3] = target: T2, 5-HT2C receptor; assay: Binding to the 5-HT2C receptor, [3H]-5-HT, CHO cell line (Method (a)); set-up: expressed in transfected cells; host or cells: CHO cell line
Experimental: as §1
Method (a): For the binding to the 5-HT2C receptor, the 5-HT2C receptors were radiolabeled with [^3H]-5-HT. The affinity of the compounds for 5-HT2C receptors in a CHO cell line was determined according to the procedure of D. Hoyer, G. Engel and H. O. Kalkman, European J. Pharmacol., 1985, 118, 13–23.

[4] = target: T3, 5-HT2A receptor (Homo sapiens, UniProt P28223); assay: Binding to the 5-HT2A receptor, [125I]-DOI, CHO cell line (Method (c)); set-up: expressed in transfected cells; host or cells: CHO cell line; details: read-out: Ki (2A)
T3 sequence (P28223 whole entry): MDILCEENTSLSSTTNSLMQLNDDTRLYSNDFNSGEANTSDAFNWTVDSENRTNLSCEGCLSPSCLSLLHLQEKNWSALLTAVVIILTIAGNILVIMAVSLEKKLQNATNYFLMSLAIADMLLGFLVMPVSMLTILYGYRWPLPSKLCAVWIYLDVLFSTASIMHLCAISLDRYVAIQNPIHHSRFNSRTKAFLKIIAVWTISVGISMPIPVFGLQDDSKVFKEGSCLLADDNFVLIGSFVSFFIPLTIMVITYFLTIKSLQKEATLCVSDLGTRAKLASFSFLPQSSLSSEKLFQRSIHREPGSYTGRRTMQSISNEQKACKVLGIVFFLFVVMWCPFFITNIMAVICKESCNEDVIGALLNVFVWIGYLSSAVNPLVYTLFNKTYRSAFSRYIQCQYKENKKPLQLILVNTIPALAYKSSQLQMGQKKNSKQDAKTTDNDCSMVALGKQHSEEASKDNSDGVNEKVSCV
Experimental: as §1
Method (c): For the binding to the 5-HT2A receptor, the 5-HT2A receptors were radiolabeled with [^125I]-DOI. The affinity of the compounds for 5-HT2A receptors in a CHO cell line was determined according to the procedure of D. J. McKenna and S. J. Peroutka, J. Neurosci., 1989, 9, 3482–90.

[5] = target: T3, 5-HT2A receptor; assay: Functional activity, FLIPR calcium assay, CHO cells expressing human 5-HT2A; format: cell-based; set-up: expressed in transfected cells; host or cells: CHO cells; details: for EC50: FLIPR, CHO cells expressing human 5-HT2A, read-out: h5-HT2A EC50; for h5-HT2A Rel. Eff.: relative efficacy vs response to 10 μM 5-HT (defined as 100%)
Experimental: as §2

T1 sequence (P41595 whole entry): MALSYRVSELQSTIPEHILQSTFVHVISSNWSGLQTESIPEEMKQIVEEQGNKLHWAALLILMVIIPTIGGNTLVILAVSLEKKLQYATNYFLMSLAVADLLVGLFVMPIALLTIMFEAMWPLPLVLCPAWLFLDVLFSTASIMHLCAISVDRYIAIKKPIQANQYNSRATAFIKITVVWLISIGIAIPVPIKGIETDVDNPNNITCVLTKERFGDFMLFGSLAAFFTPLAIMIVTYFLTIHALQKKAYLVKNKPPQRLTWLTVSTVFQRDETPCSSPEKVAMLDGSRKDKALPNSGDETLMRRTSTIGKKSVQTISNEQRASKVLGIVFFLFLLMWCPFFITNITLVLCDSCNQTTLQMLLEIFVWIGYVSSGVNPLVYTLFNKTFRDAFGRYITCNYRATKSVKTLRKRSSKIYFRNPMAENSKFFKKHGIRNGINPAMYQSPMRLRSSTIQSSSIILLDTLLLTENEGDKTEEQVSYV

## CCc1ccc2c(n1)N1[C@@H](CNC[C@H]1C)C2 [Example 9, (4R,9aR)-6-Ethyl-4-methyl-1,2,3,4,9,9a-hexahydro-2,4a,5-triaza-fluorene]
[1]
  Ki: 271 nM
[2]
  EC50: 85.4 nM
  h5-HT2C Rel. Eff.: 91.4%
[3]
  Ki: 16.5 nM
[4]
  Ki: 212 nM
[5]
  EC50: 644 nM
  h5-HT2A Rel. Eff.: 29.6%

## Cc1c2n(c3nc(Cl)ccc13)[C@H](C)CNC2 [Example 20, (R)-6-Chloro-4,9-dimethyl-1,2,3,4-tetrahydro-2,4a,5-triaza-fluorene]
[1]
  Ki: 108 nM
[2]
  EC50: 7.6 nM
  h5-HT2C Rel. Eff.: 93.3%
[3]
  Ki: 5.1 nM
[4]
  Ki: 178 nM
[5]
  EC50: 11.1 nM
  h5-HT2A Rel. Eff.: 12.0%
